The text below walks through data of US4808517A (priority 1985, dated 1989).

The assay has as its system submitochondrial particles. Format: biochemical.

Turning to `Oc1c(Cl)c(Cl)c(Cl)c(Cl)c1Cl` [Pentachlorophenol], the “Inhibition of maximum NADH concentration” value was determined as 39%.
